The subject of assay [1] is Spodoptera littoralis. Description: Spodoptera littoralis (Egyptian cotton leafworm) cotton leaf disc spray test. It counts as in vivo. Particulars: foliar, 72 h, 200 ppm spray on cotton leaf discs, L1 larvae, mortality, repellent effect, feeding behaviour, growth regulation 3 DAT. From the text:
Spodoptera littoralis (Egyptian Cotton Leafworm)
Cotton leaf discs were placed on agar in a 24-well microtiter plate and sprayed with test solutions at an application rate of 200 ppm. After drying, the leaf discs were infested with 5 L1 larvae. The samples were checked for mortality, repellent effect, feeding behaviour, and growth regulation 3 days after treatment (DAT). The following compounds gave at least 80% control of Spodoptera littoralis: I-3, II-3, II-7, V-3, XXVII-3, XXVIII-3, XXIX-3, XXXI-3.

Assay [2] relates to Aedes aegypti. Nature of the assay: Aedes aegypti (yellow fever mosquito) larvae test. The format is in vivo. As to conditions: 48 h, L2 larvae in 96-well plates, 2 days, mortality and growth inhibition. An excerpt:
Aedes aegypti (Yellow Fever Mosquito):
10-15 Aedes larvae (L2) together with a nutrition mixture are placed in 96-well microtiter plates. Test solutions at an application rate of 2 ppm are pipetted into the wells. 2 days later, insects were checked for mortality and growth inhibition. The following compounds gave at least 80% control of Aedes aegypti: I-3, II-3, II-7, V-3, XXVII-3, XXVIII-3, XXIX-3, XXXI-3.

A value given as a limit tells only on which side of the number the result lay.

The text below walks through data of patent US8338443B2, “Chemical compounds” (priority 2006, dated 2012).

Broadly, the pest or weed control is the degree to which the test organism was suppressed or injured, in per cent. Low values mean a weak effect, high ones a strong effect. In the case of `Cc1nc2c(C3=CCN(C/C=C/c4ccc(Cl)cc4)CC3)c(NC(=O)c3ccnc(Cl)c3)ccc2s1` [XXXI-3], the pest or weed control at 200 ppm in assay [1] is ≥ 80%. The pest or weed control at 2 ppm in assay [2] was ≥ 80%.
As to `O=C(Nc1ccc2cn[nH]c2c1C1CCN(C/C=C/c2ccc(Cl)cc2)CC1)c1ccnc(Cl)c1` [XXVII-3], the pest or weed control at 200 ppm in assay [1] was ≥ 80%. Also, the pest or weed control at 2 ppm in assay [2] is ≥ 80%.
Consider `O=C(Nc1ccc2cccnc2c1C1CCN(C/C=C/c2ccc(Cl)cc2)CC1)c1ccnc(Cl)c1` [Compound I-3], for which, in assay [1], the pest or weed control at 200 ppm is ≥ 80%. Moreover, in assay [2], the pest or weed control at 2 ppm is ≥ 80%.
Turning to `O=C(Nc1ccc2cccnc2c1C1=CCN(C/C=C/c2ccc(Cl)cc2)CC1)c1ccnc(Cl)c1` [XXIX-3], the pest or weed control at 200 ppm in assay [1] is ≥ 80%. Also, in assay [2], the pest or weed control at 2 ppm was ≥ 80%.
Turning to `O=C(Nc1ccc2nccnc2c1C1CCN(C/C=C/c2ccc(Cl)cc2)CC1)c1ccnc(Cl)c1` [XXVIII-3], the pest or weed control at 200 ppm in assay [1] is ≥ 80%. The pest or weed control at 2 ppm in assay [2] is ≥ 80%.
Regarding `O=C(Nc1ccc2scnc2c1C1CCN(C/C=C/c2ccc(OC(F)(F)F)cc2)CC1)c1ccnc(Cl)c1` [II-7], in assay [1], the pest or weed control at 200 ppm is ≥ 80%. Also, in assay [2], the pest or weed control at 2 ppm is ≥ 80%.
On to `O=C(Nc1ccc2ncsc2c1C1CCN(C/C=C/c2ccc(Cl)cc2)CC1)c1ccnc(Cl)c1` [Compound V-3], for which, in assay [1], the pest or weed control at 200 ppm was ≥ 80%. Moreover, the pest or weed control at 2 ppm in assay [2] is ≥ 80%.
`O=C(Nc1ccc2scnc2c1C1CCN(C/C=C/c2ccc(Cl)cc2)CC1)c1ccnc(Cl)c1` [II-3, 2-Chloro-N-(4-{1-[(E)-3-(4-chloro-phenyl)-allyl]-piperidin-4-yl}-benzothiazol-5-yl)-isonicotinamide]: the pest or weed control at 200 ppm in assay [1] was ≥ 80%. For the same compound, the pest or weed control at 2 ppm in assay [2] was ≥ 80%.
